Counter-ions that a name gives are not always drawn. Like-named read-outs stand apart in the source and are kept apart here. Where only a bound is given, the exact number is not on record here.

The target in one assay is mutant BRAF kinase (Homo sapiens (Human), UniProt P15056, V600E). Conditions: read-out: BRAF V600E Kd, class symbols.
For assay [1], the system named is panel of 290 distinct kinases (321 in the larger panel), excluding mutant variants.
Procedure: The liganded beads were blocked with excess biotin and washed with blocking buffer (SeaBlock (Pierce), 1% BSA, 0.05% Tween 20, 1 mM DTT) to remove unbound ligand and to reduce non-specific binding. […] Test compounds were prepared as 100× stocks in DMSO and rapidly diluted into the aqueous environment. DMSO was added to control assays lacking a test compound. Primary screen interactions were performed in polypropylene 384-well plates in a final volume of 34 μL, while Kd determinations were performed in polystyrene 96-well plates in a final volume of 135 μL. […] The kinase concentration in the eluates was measured by quantitative PCR. Each kinase was tested individually against each compound. KdS were determined using eleven serial threefold dilutions. A selectivity score, which is a quantitative measure of selectivity of a compound against a panel of enzymes, may be calculated for a compound by dividing the number of enzymes for which a compound meets a set criteria, (for example, a binding constant of 100 nM or less), by the total number of enzymes tested. […] (Note, for those compounds tested in a larger kinase panel, as indicated by an asterisk (*) next to the S35 score, the divisor is 321 (i.e. the larger panel contains 321 distinct kinases, excluding mutant variants.)).
Setting [2] is: kinase selectivity score, 290 distinct kinases, class symbols.
[3] abbreviates: no asterisk: panel of 290 distinct kinases.

mutant BRAF kinase, sequence (P15056 whole entry V600E): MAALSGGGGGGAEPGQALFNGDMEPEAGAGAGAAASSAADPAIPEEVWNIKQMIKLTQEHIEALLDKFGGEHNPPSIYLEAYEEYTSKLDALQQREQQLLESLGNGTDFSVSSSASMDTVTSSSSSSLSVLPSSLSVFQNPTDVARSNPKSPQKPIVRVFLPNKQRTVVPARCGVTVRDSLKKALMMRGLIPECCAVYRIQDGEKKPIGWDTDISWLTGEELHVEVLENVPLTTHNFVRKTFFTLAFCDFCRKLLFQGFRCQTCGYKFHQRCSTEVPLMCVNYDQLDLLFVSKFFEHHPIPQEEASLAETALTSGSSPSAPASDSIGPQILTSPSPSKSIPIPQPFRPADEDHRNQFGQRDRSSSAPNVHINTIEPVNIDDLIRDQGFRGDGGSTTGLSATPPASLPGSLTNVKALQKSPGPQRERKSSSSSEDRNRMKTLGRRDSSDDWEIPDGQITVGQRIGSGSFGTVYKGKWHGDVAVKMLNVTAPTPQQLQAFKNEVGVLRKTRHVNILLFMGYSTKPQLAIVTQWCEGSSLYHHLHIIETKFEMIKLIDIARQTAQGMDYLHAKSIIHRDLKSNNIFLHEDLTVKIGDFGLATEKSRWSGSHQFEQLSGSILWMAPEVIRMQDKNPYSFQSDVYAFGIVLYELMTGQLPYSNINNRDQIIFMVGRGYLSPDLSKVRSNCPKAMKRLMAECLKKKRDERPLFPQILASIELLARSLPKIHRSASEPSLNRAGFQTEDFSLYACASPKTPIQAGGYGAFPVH

For the compound `COCCOc1cc2ncnc(Oc3cccc(NC(=O)Nc4cc(C(C)(C)C)on4)c3)c2cc1OC` [Ex 7, 1-(5-tert-Butylisoxazol-3-yl)-3-{3-[6-methoxy-7-(2-methoxyethoxy)quinazolin-4-yloxy]phenyl}urea hydrochloride], the Kd on mutant BRAF kinase is below 250 nM. Also, the S35 result in assay [1] (setting [2]) was “D (D > 0.40)”.

As to `COCCOc1cc2ncnc(Oc3cccc(NC(=O)Nc4cc(C(C)(C)C)on4)c3)c2cc1OCCOC` [Ex 12, 1-{3-[6,7-bis(2-methoxyethoxy)quinazolin-4-yloxy]phenyl}-3-(5-tert-butylisoxazol-3-yl)urea hydrochloride], at mutant BRAF kinase, the equilibrium dissociation constant (Kd) is below 250 nM. For the same compound, the S35 result in assay [1] (setting [2]) was “C (0.20 < C ≦ 0.40)”.

`CC(C)(C)c1cc(NC(=O)Nc2cccc(Oc3ncnc4cc5c(cc34)OCCO5)c2)no1` [Ex 14, 1-(5-tert-butylisoxazol-3-yl)-3-[3-(7,8-dihydro-[1,4]dioxino[2,3-g]quinazolin-4-yloxy)phenyl]urea hydrochloride]: on mutant BRAF kinase, the Kd is below 250 nM. In assay [1] (setting [2]), the S35 result is recorded as “C (0.20 < C ≦ 0.40)”.

As for `COCCOc1cc2c(Oc3cccc(NC(=O)Nc4cc(C(C)(C)C)on4)c3)ncnc2cc1OC` [Ex 15, 1-(5-tert-butylisoxazol-3-yl)-3-{3-[7-methoxy-6-(2-methoxyethoxy)quinazolin-4-yloxy]phenyl}urea hydrochloride], the Kd on mutant BRAF kinase was below 250 nM. Besides, the S35 result in assay [1] (setting [2]) is listed as “C (0.20 < C ≦ 0.40)”.

In the case of `COc1cc2ncnc(Oc3cccc(NC(=O)Nc4cc(C(C)(C)C)on4)c3)c2cc1OCCN1CCC(CO)CC1` [Ex 17, 1-(5-tert-butylisoxazol-3-yl)-3-(3-(6-(2-(4-(hydroxymethyl)piperidin-1-yl)ethoxy)-7-methoxyquinazolin-4-yloxy)phenyl)urea], the Kd at mutant BRAF kinase was below 250 nM. The S35 entry in assay [1] (setting [2]) was “C (0.20 < C ≦ 0.40)”.

As for `COc1cc2ncnc(Oc3cccc(NC(=O)Nc4cc(C(C)(C)C)on4)c3)c2cc1OCCN1CCN(C)CC1` [Ex 18, 1-(5-tert-butylisoxazol-3-yl)-3-(3-(7-methoxy-6-(2-(4-methylpiperazin-1-yl)ethoxy)quinazolin-4-yloxy)phenyl)urea], the Kd on mutant BRAF kinase was below 250 nM. Also, in assay [1] (setting [2]), the S35 result was “D (D > 0.40)”.

With `COc1cc2ncnc(Oc3cccc(NC(=O)Nc4cc(C(C)(C)C)on4)c3)c2cc1OCCN1CCN(CCO)CC1` [Ex 19, 1-(5-tert-butylisoxazol-3-yl)-3-(3-(6-(2-(4-(2-hydroxyethyl)piperazin-1-yl)ethoxy)-7-methoxyquinazolin-4-yloxy)phenyl)urea], at mutant BRAF kinase, the Kd is below 250 nM. Also, the S35 entry in assay [1] (setting [2]) is “D (D > 0.40)”.

`CCOc1cc2ncnc(Oc3cccc(NC(=O)Nc4cc(C(C)(C)F)no4)c3)c2cc1OC` [Ex 385, 1-(3-(7-ethoxy-6-methoxyquinazolin-4-yloxy)phenyl)-3-(3-(2-fluoropropan-2-yl)isoxazol-5-yl)urea]: the S35 result in assay [1] (setting [3]) was “C (0.20 < C ≦ 0.40)”.

For `CCOc1cc2ncnc(Oc3cccc(NC(=O)Nc4cc(C(C)(CF)CF)on4)c3)c2cc1OC` [Ex 386, 1-(5-(1,3-difluoro-2-methylpropan-2-yl)isoxazol-3-yl)-3-(3-(7-ethoxy-6-methoxyquinazolin-4-yloxy)phenyl)urea], the S35 result in assay [1] (setting [3]) is given as “C (0.20 < C ≦ 0.40)”.

Turning to `CCOc1cc2ncnc(Oc3cccc(NC(=O)Nc4cc(C(C)(C)C)nn4-c4ccccc4)c3)c2cc1OC` [Ex 387, 1-(3-tert-butyl-1-phenyl-1H-pyrazol-5-yl)-3-(3-(7-ethoxy-6-methoxyquinazolin-4-yloxy)phenyl)urea], the S35 result in assay [1] (setting [3]) is “D (D > 0.40)”.

`CCOc1cc2ncnc(Sc3cccc(NC(=O)Nc4cc(C(C)(C)F)no4)c3)c2cc1OC` [Ex 389, 1-(3-(7-ethoxy-6-methoxyquinazolin-4-ylthio)phenyl)-3-(3-(2-fluoropropan-2-yl)isoxazol-5-yl)urea]: the S35 entry in assay [1] (setting [3]) is on record as “C (0.20 < C ≦ 0.40)”.

As for `CCOc1cc2c(Oc3cccc(NC(=O)Nc4cc(C(C)(C)C)nn4-c4ccccc4)c3)ncnc2cc1OC` [Ex 390, 1-(3-tert-butyl-1-phenyl-1H-pyrazol-5-yl)-3-(3-(6-ethoxy-7-methoxyquinazolin-4-yloxy)phenyl)urea], the S35 entry in assay [1] (setting [3]) was “D (D > 0.40)”.

For the compound `CCOc1cc2c(Oc3cccc(NC(=O)Nc4cc(C(F)(F)F)nn4-c4ccccc4)c3)ncnc2cc1OC` [Ex 391, 1-(3-(6-ethoxy-7-methoxyquinazolin-4-yloxy)phenyl)-3-(1-phenyl-3-(trifluoromethyl)-1H-pyrazol-5-yl)urea], the S35 entry in assay [1] (setting [3]) was “C (0.20 < C ≦ 0.40)”.

For `CCOc1cc2c(Oc3cccc(NC(=O)Nc4cc(C(C)(C)F)no4)c3)ncnc2cc1OC` [Ex 392, 1-(3-(6-ethoxy-7-methoxyquinazolin-4-yloxy)phenyl)-3-(3-(2-fluoropropan-2-yl)isoxazol-5-yl)urea], the S35 result in assay [1] (setting [3]) is recorded as “C (0.20 < C ≦ 0.40)”.

As for `CCOc1cc2c(Oc3cccc(NC(=O)Nc4cc(C(C)(CF)CF)on4)c3)ncnc2cc1OC` [Ex 393, 1-(5-(1,3-difluoro-2-methylpropan-2-yl)isoxazol-3-yl)-3-(3-(6-ethoxy-7-methoxyquinazolin-4-yloxy)phenyl)urea], the S35 result in assay [1] (setting [3]) is “C (0.20 < C ≦ 0.40)”.

Consider `CCOc1cc2c(Sc3cccc(NC(=O)Nc4cc(C(C)(C)F)no4)c3)ncnc2cc1OC` [Ex 394, 1-(3-(6-ethoxy-7-methoxyquinazolin-4-ylthio)phenyl)-3-(3-(2-fluoropropan-2-yl)isoxazol-5-yl)urea], for which the S35 result in assay [1] (setting [3]) is listed as “C (0.20 < C ≦ 0.40)”.

As for `CCOc1cc2c(Sc3cccc(NC(=O)Nc4cc(C(C)(CF)CF)on4)c3)ncnc2cc1OC` [Ex 395, 1-(5-(1,3-difluoro-2-methylpropan-2-yl)isoxazol-3-yl)-3-(3-(6-ethoxy-7-methoxyquinazolin-4-ylthio)phenyl)urea], the S35 result in assay [1] (setting [3]) is listed as “C (0.20 < C ≦ 0.40)”.

For `COc1cc2c(Oc3cccc(NC(=O)Nc4cc(C(F)(F)F)nn4-c4ccccc4)c3)ncnc2cc1OCCN1CCOCC1` [Ex 396, 1-(3-(6-Methoxy-7-(2-morpholinoethoxy)quinazolin-4-yloxy)phenyl)-3-(1-phenyl-3-(trifluoromethyl)-1H-pyrazol-5-yl)urea], the S35 entry in assay [1] (setting [3]) is listed as “C (0.20 < C ≦ 0.40)”.

With `COc1cc2ncnc(Oc3cc(NC(=O)Nc4cc(C(F)(F)F)nn4-c4ccccc4)ccc3F)c2cc1OC` [Ex 397, 1-(3-(6,7-Dimethoxyquinazolin-4-yloxy)-4-fluorophenyl)-3-(1-phenyl-3-(trifluoromethyl)-1H-pyrazol-5-yl)urea], the S35 result in assay [1] (setting [3]) was “C (0.20 < C ≦ 0.40)”.

With `CCc1cc(NC(=O)Nc2cccc(Sc3ncnc4cc(OC)c(OC)cc34)c2)n(-c2ccccc2)n1` [Ex 399, 1-(3-(6,7-dimethoxyquinazolin-4-ylthio)phenyl)-3-(3-ethyl-1-phenyl-1H-pyrazol-5-yl)urea], the S35 result in assay [1] (setting [3]) is “C (0.20 < C ≦ 0.40)”.

Take `CCOc1cc2ncnc(Oc3cccc(NC(=O)Nc4cc(C(F)(F)F)nn4-c4ccccc4)c3)c2cc1OC` [Example 384, 1-(3-(7-ethoxy-6-methoxyquinazolin-4-yloxy)phenyl)-3-(1-phenyl-3-(trifluoromethyl)-1H-pyrazol-5-yl)urea]: the S35 result in assay [1] (setting [3]) was “C (0.20 < C ≦ 0.40)”.

In the case of `CCOc1cc2ncnc(Sc3cccc(NC(=O)Nc4cc(C(C)(CF)CF)on4)c3)c2cc1OC` [Example 388, 1-(5-(1,3-difluoro-2-methylpropan-2-yl)isoxazol-3-yl)-3-(3-(7-ethoxy-6-methoxyquinazolin-4-ylthio)phenyl)urea], the S35 result in assay [1] (setting [3]) is recorded as “C (0.20 < C ≦ 0.40)”.

What is called Kd is a measure of binding affinity in units of concentration.
